Patent publication US8178690B2, “Compounds and methods for inhibiting the interaction of BCL proteins with binding partners” (Infinity Pharmaceuticals, Inc., priority 2006, dated 2012)

Experiments:
Bcl-2 = Bcl-2 (Homo sapiens, UniProt P10415); assay: Bcl-2 binding affinity analysis (fluorescence polarization binding assay); settings: read-out: BcI2 (Ki, Bcl-2 binding affinity)
Text: (§1) Bcl-2 and Bcl-xL binding may be determined using a variety of known methods. One such assay is a sensitive and quantitative in vitro binding assay using fluorescence polarization (FP) described by Wang, J.-L.; Zhang, Z-J.; Choksi, S.; Sjam. S.; Lu, Z.; Croce, C. M.; Alnemri, E. S.; Komgold, R.; Huang, Z. Cell permeable Bcl-2 binding peptides: a chemical approach to apoptosis induction in tumor cells. Cancer Res. 2000, 60, 1498-1502).
(§2) Bcl-2 and Bcl-xL binding affinity analysis data is presented below for various compounds of the invention.

Bcl-xL = Bcl-xL (Homo sapiens, UniProt Q07817); assay: Bcl-xL binding affinity analysis (fluorescence polarization binding assay); settings: read-out: BcI-XI (Ki, Bcl-xL binding affinity)
Text: as §1, §2

Chain of Bcl-2 (P10415 whole entry): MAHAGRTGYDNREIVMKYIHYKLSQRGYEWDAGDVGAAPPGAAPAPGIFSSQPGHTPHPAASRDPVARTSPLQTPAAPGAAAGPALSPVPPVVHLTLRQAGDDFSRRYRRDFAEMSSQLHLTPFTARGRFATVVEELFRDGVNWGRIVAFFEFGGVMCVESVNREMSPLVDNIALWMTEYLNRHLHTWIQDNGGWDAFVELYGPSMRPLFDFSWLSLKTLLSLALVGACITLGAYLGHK
Chain of Bcl-xL (Q07817 whole entry): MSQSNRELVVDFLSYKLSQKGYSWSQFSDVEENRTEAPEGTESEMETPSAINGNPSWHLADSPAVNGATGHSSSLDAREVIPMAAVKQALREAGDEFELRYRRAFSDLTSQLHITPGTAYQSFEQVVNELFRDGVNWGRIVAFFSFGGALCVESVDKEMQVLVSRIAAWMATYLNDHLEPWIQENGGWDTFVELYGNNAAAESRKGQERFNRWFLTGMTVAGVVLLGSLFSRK

Compound | Ki (Bcl-2) [nM] | Ki (Bcl-xL) [nM]
COc1c(CN2O[C@@H](CO)[C@@H]([C@H](C)O)[C@H]2C(=O)N[C@H]2C[C@H]3C[C@@H]([C@@H]2C)C3(C)C)cccc1-c1cc(CN)cc(C(=O)N[C@@H](Cc2ccccc2)CN(C)C)c1 [295 amine] | < 1 | < 1000
COc1c(CN2O[C@@H](CO)[C@@H]([C@H](C)O)[C@H]2C(=O)N[C@H]2C[C@H]3C[C@@H]([C@@H]2C)C3(C)C)cccc1-c1cc(C(=O)N[C@@H](Cc2ccccc2)CN(C)C)cc(N(C)CC(=O)O)c1 [Compound 306] | < 1 | < 1000
COc1c(CN2O[C@@H](CO)[C@@H]([C@H](C)O)[C@H]2C(=O)N[C@H]2C[C@H]3C[C@@H]([C@@H]2C)C3(C)C)cccc1-c1cc(C(=O)N[C@@H](Cc2ccccc2)CN(C)C)cc(N(C)CC(=O)N(C)C)c1 [Compound 308] | < 1 | < 1000
COc1c(CN2O[C@@H](CO)[C@@H]([C@H](C)O)[C@H]2C(=O)N[C@H]2C[C@H]3C[C@@H]([C@@H]2C)C3(C)C)cccc1-c1cc(C(=O)N[C@H](Cc2ccccc2)CN2CCN(C)CC2)cc(N(C)C)c1 [Compound 313] | < 1 | < 1000
CNC(=O)c1cc(-c2cccc(CN3O[C@@H](CN)[C@@H]([C@H](C)OC(=O)NCCc4ccccc4)[C@H]3C(=O)N[C@H]3C[C@H]4C[C@@H]([C@@H]3C)C4(C)C)c2OC)cc(N(C)C)c1 [Compound 91] | > 9 | > 10000
COc1c(CN2O[C@@H](CN)[C@@H]([C@H](C)O)[C@H]2C(=O)N[C@H]2C[C@H]3C[C@@H]([C@@H]2C)C3(C)C)cccc1-c1cc(C(=O)N[C@H](CN(C)C)CC(C)(C)C)cc(N(C)C)c1 [Compound 61] | < 1 | < 1000
CCOc1c(CN2O[C@@H](CO)[C@@H]([C@H](C)O)[C@H]2C(=O)N[C@H]2C[C@H]3C[C@@H]([C@@H]2C)C3(C)C)cccc1-c1cc(C(=O)N[C@@H](Cc2ccccc2)CN2CCCC2)cc(N(C)C)c1 [Compound 182] | < 1 | < 1000
CNC(=O)c1cc(-c2cccc(CN3O[C@@H](CNCc4cccc(C(=O)O)c4)[C@@H]([C@H](C)O)[C@H]3C(=O)N[C@H]3C[C@H]4C[C@@H]([C@@H]3C)C4(C)C)c2OC)cc(N(C)C)c1 [Compound 84] | > 9 | > 10000
COc1c(CN2O[C@@H](CO)[C@@H]([C@H](C)O)[C@H]2C(=O)N[C@H]2C[C@H]3C[C@@H]([C@@H]2C)C3(C)C)cccc1-c1cc(C(=O)N2[C@H](CN(C)C)CC[C@@H]2c2ccccc2)cc(N(C)C)c1 [Compound 247] | < 1 | < 1000
COc1c(CN2O[C@@H](CO)[C@@H]([C@H](C)O)[C@H]2C(=O)N[C@H]2C[C@H]3C[C@@H]([C@@H]2C)C3(C)C)cccc1-c1cc(C(=O)N[C@@H](CC(C)C)CN2CCCC2)cc(N(C)C)c1 [Compound 320] | < 1 | < 1000

Further lines, results first:

Ki (Bcl-2) [nM] | Ki (Bcl-xL) [nM] | Compound
< 1 | < 1000 | C[C@@H]1[C@@H](NC(=O)[C@@H]2[C@H]([C@H](C)O)[C@H](CO)ON2Cc2cccc(-c3cc(C(=O)N[C@@H](Cc4ccccc4)CN(C)C)cc(N(C)C)c3)c2OCC2CC2)C[C@H]2C[C@@H]1C2(C)C [Compound 26]
< 1 | < 1000 | COc1c(-c2cc(C(=O)N[C@H](CN(C)C)[C@H](O)c3ccccc3)cc(N(C)C)c2)ccc(F)c1CN1O[C@@H](CO)[C@@H]([C@H](C)O)[C@H]1C(=O)N[C@H]1C[C@H]2C[C@@H]([C@@H]1C)C2(C)C [Compound 143]
< 1 | 1000 to 5000 | CCOc1c(CN2O[C@@H](CN)[C@@H]([C@H](C)O)[C@H]2C(=O)N[C@H]2C[C@H]3C[C@@H]([C@@H]2C)C3(C)C)cccc1-c1cc(C(=O)N[C@@H](Cc2ccccc2)CN(C)C)cc(N(C)C)c1 [Compound 218]
< 1 | < 1000 | COc1c(CN2O[C@@H](CO)[C@@H]([C@H](C)O)[C@H]2C(=O)N[C@H]2C[C@H]3C[C@@H]([C@@H]2C)C3(C)C)cccc1-c1cc(C(=O)N[C@@H](Cc2ccccc2)CN(C)C)cc(N(C)CC(N)=O)c1 [Compound 310]
< 1 | > 10000 | COc1c(CN2O[C@@H](CN)[C@@H]([C@H](C)O)[C@H]2C(=O)N[C@H]2C[C@H]3C[C@@H]([C@@H]2C)C3(C)C)cccc1-c1cc(C(=O)NCCc2ccccn2)cc(N(C)C)c1 [Compound 64]
1 to 5 | > 10000 | CCNC[C@@H]1ON(Cc2cccc(-c3cc(C(=O)NC)cc(N(C)C)c3)c2OC)[C@H](C(=O)N[C@H]2C[C@H]3C[C@@H]([C@@H]2C)C3(C)C)[C@@H]1[C@H](C)O [Compound 94]
< 1 | 1000 to 5000 | CCOc1c(CN2O[C@@H](CO)[C@@H]([C@H](C)O)[C@H]2C(=O)N[C@H]2C[C@H]3C[C@@H]([C@@H]2C)C3(C)C)cccc1-c1cc(C(=O)N[C@H](CC(C)C)CN(C)C)cc(N(C)C)c1 [Compound 259]
